Assays:
[1] = tested on: Mus musculus; test: Hepatic uptake clearance in Bcrp gene knockout C57BL/6 mouse at 1 uM administered through single-pass liver perfusion for 15 mins; format: ADME, organism-based; conditions: in vivo, 0.25 h
[2] = tested on: Mus musculus; test: Hepatic uptake clearance in Mrp2 gene knockout C57BL/6 mouse at 1 uM administered through single-pass liver perfusion for 15 mins coinfused with Pgp and Bcrp inhibitor GW918; format: ADME, organism-based; conditions: in vivo, 0.25 h
[3] = Drug excretion in Bcrp gene knockout C57BL/6 mouse assessed as drug recovery in bile at 1 uM administered through single-pass liver perfusion for 15 mins coinfused with Pgp and Bcrp inhibitor GW918 relative to total liver drug content at the end of infusion; format: ADME, tissue-based; design: scale not given: the % may be the effect or the level left; conditions: in vivo, 0.25 h
[4] = tested on: Mus musculus; test: Hepatic uptake clearance in C57BL/6 mouse at 1 uM administered through single-pass liver perfusion for 15 mins; format: ADME, organism-based; conditions: in vivo, 0.25 h
[5] = Drug level in Bcrp gene knockout C57BL/6 mouse bile at 1 uM administered through single-pass liver perfusion for 15 mins coinfused with Pgp and Bcrp inhibitor GW918; format: ADME, tissue-based; conditions: in vivo, 0.25 h
[6] = Drug level in C57BL/6 mouse bile at 1 uM administered through single-pass liver perfusion for 15 mins; format: ADME, tissue-based; conditions: in vivo, 0.25 h
[7] = tested on: Mus musculus; test: Drug excretion in Bcrp gene knockout C57BL/6 mouse assessed as drug recovery in outflow perfusate at 1 uM administered through single-pass liver perfusion for 15 mins relative to total liver drug content at the end of infusion; format: ADME, organism-based; conditions: in vivo, 0.25 h
[8] = Drug level in Bcrp gene knockout C57BL/6 mouse bile at 1 uM administered through single-pass liver perfusion for 15 mins; format: ADME, tissue-based; conditions: in vivo, 0.25 h
[9] = tested on: Mus musculus; test: Drug excretion in C57BL/6 mouse assessed as drug recovery in outflow perfusate and bile at 1 uM administered through single-pass liver perfusion for 15 mins; format: ADME, organism-based; conditions: in vivo, other, 0.25 h
[10] = tested on: Mus musculus; test: Hepatic uptake clearance in Mrp2 gene knockout C57BL/6 mouse at 1 uM administered through single-pass liver perfusion for 15 mins; format: ADME, organism-based; conditions: in vivo, 0.25 h
[11] = Drug excretion in C57BL/6 mouse assessed as drug recovery in bile at 1 uM administered through single-pass liver perfusion for 15 mins relative to total liver drug content at the end of infusion; format: ADME, tissue-based; conditions: in vivo, 0.25 h
[12] = Drug excretion in C57BL/6 mouse assessed as drug recovery in bile at 1 uM administered through single-pass liver perfusion for 15 mins coinfused with Pgp and Bcrp inhibitor GW918 relative to total liver drug content at the end of infusion; format: ADME, tissue-based; design: scale not given: the % may be the effect or the level left; conditions: in vivo, 0.25 h
[13] = tested on: Mus musculus; test: Drug excretion in Mrp2 gene knockout C57BL/6 mouse assessed as drug recovery in outflow perfusate at 1 uM administered through single-pass liver perfusion for 15 mins relative to total liver drug content at the end of infusion; format: ADME, organism-based; conditions: in vivo, 0.25 h
[14] = Drug excretion in Mrp2 gene knockout C57BL/6 mouse assessed as drug recovery in bile at 1 uM administered through single-pass liver perfusion for 15 mins relative to total liver drug content at the end of infusion; format: ADME, tissue-based; conditions: in vivo, 0.25 h
[15] = tested on: Mus musculus; test: Drug excretion in Mrp2 gene knockout C57BL/6 mouse assessed as drug recovery in outflow perfusate and bile at 1 uM administered through single-pass liver perfusion for 15 mins; format: ADME, organism-based; conditions: in vivo, 0.25 h
[16] = tested on: Mus musculus; test: Drug excretion in Mrp2 gene knockout C57BL/6 mouse assessed as drug recovery in outflow perfusate at 1 uM administered through single-pass liver perfusion for 15 mins coinfused with Pgp and Bcrp inhibitor GW918 relative to total liver drug content at the end of infusion; format: ADME, organism-based; design: scale not given: the % may be the effect or the level left; conditions: in vivo, 0.25 h
[17] = Drug level in C57BL/6 mouse bile at 1 uM administered through single-pass liver perfusion for 15 mins coinfused with Pgp and Bcrp inhibitor GW918; format: ADME, tissue-based; conditions: in vivo, 0.25 h
[18] = tested on: Mus musculus; test: Drug excretion in Bcrp gene knockout C57BL/6 mouse assessed as drug recovery in outflow perfusate and bile at 1 uM administered through single-pass liver perfusion for 15 mins; format: ADME, organism-based; conditions: in vivo, 0.25 h
[19] = tested on: Mus musculus; test: Hepatic uptake clearance in C57BL/6 mouse at 1 uM administered through single-pass liver perfusion for 15 mins coinfused with Pgp and Bcrp inhibitor GW918; format: ADME, organism-based; conditions: in vivo, 0.25 h
[20] = Drug excretion in Bcrp gene knockout C57BL/6 mouse assessed as drug recovery in bile at 1 uM administered through single-pass liver perfusion for 15 mins relative to total liver drug content at the end of infusion; format: ADME, tissue-based; conditions: in vivo, 0.25 h
[21] = tested on: Mus musculus; test: Drug excretion in Bcrp gene knockout C57BL/6 mouse assessed as drug recovery in outflow perfusate at 1 uM administered through single-pass liver perfusion for 15 mins coinfused with Pgp and Bcrp inhibitor GW918 relative to total liver drug content at the end of infusion; format: ADME, organism-based; design: scale not given: the % may be the effect or the level left; conditions: in vivo, 0.25 h
[22] = Drug excretion in Mrp2 gene knockout C57BL/6 mouse assessed as drug recovery in bile at 1 uM administered through single-pass liver perfusion for 15 mins coinfused with Pgp and Bcrp inhibitor GW918 relative to total liver drug content at the end of infusion; format: ADME, tissue-based; design: scale not given: the % may be the effect or the level left; conditions: in vivo, 0.25 h
[23] = Drug level in Mrp2 gene knockout C57BL/6 mouse bile at 1 uM administered through single-pass liver perfusion for 15 mins; format: ADME, tissue-based; conditions: in vivo, 0.25 h
[24] = tested on: Mus musculus; test: Drug excretion in C57BL/6 mouse assessed as drug recovery in outflow perfusate at 1 uM administered through single-pass liver perfusion for 15 mins relative to total liver drug content at the end of infusion; format: ADME, organism-based; conditions: in vivo, 0.25 h
[25] = Drug level in Mrp2 gene knockout C57BL/6 mouse bile at 1 uM administered through single-pass liver perfusion for 15 mins coinfused with Pgp and Bcrp inhibitor GW918; format: ADME, tissue-based; conditions: in vivo, 0.25 h
[26] = tested on: Mus musculus; test: Hepatic uptake clearance in Bcrp gene knockout C57BL/6 mouse at 1 uM administered through single-pass liver perfusion for 15 mins coinfused with Pgp and Bcrp inhibitor GW918; format: ADME, organism-based; conditions: in vivo, 0.25 h
[27] = tested on: Mus musculus; test: Drug excretion in C57BL/6 mouse assessed as drug recovery in outflow perfusate at 1 uM administered through single-pass liver perfusion for 15 mins coinfused with Pgp and Bcrp inhibitor GW918 relative to total liver drug content at the end of infusion; format: ADME, organism-based; design: scale not given: the % may be the effect or the level left; conditions: in vivo, 0.25 h

A CLup [1] of 4.55 mL/min, a CLup [2] of 4.7 mL/min and an Activity [3] of 8.28% were found for SPIRAMYCIN in this work. The CLup [4] was 4.63 mL/min, the Drug uptake [5] was 14 µg/mL and the Drug uptake [6] was 8.65 µg/mL. It also gave an Activity [7] of 28.1%, a Drug uptake [8] of 19.1 µg/mL and an Activity [9] of 90.5 %ID. The CLup [10] was 5.15 mL/min, the Activity [11] was 9.15% and the Activity [12] was 4.36%. It also gave an Activity [13] of 29.5%, an Activity [14] of 1.21% and an Activity [15] of 82.4 %ID. The Activity [16] was 24%, the Drug uptake [17] was 7.82 µg/mL and the Activity [18] was 86.5 %ID. For the same sequence, the CLup [19] was 4.64 mL/min, the Activity [20] was 14.1% and the Activity [21] was 25.2%. For the same sequence, the Activity [22] was 0.58%, the Drug uptake [23] was 3.45 µg/mL and the Activity [24] was 32.5%. For the same sequence, the Drug uptake [25] was 1.77 µg/mL, the CLup [26] was 5.03 mL/min and the Activity [27] was 34.1%.

From ChEMBL document CHEMBL1143417, “Roles of P-glycoprotein, Bcrp, and Mrp2 in biliary excretion of spiramycin in mice” (Antimicrob Agents Chemother, 2007)
